# Measured values taken from patent US8257755B2, “Metabolic syndrome-improving agent and medicine, supplement, functional food and food additive containing the same” (ARKRAY, Inc., priority 2005, dated 2012).
# Tests used:
# [1] = target: T1, human PPARγ ligand-binding site (Homo sapiens, UniProt P37231); assay: PPARγ ligand activity, GAL4-hPPARγ luciferase reporter assay in CV-1 cells; assay type: cell-based; details: for PPARγ ligand activity: relative to non-treatment control (DMSO) = 100, average ± standard error, n=4
# T1 construct: expressed in transfected cells; host or cells: CV-1 cells (African green monkey kidney)
# T1 sequence (P37231 204-505): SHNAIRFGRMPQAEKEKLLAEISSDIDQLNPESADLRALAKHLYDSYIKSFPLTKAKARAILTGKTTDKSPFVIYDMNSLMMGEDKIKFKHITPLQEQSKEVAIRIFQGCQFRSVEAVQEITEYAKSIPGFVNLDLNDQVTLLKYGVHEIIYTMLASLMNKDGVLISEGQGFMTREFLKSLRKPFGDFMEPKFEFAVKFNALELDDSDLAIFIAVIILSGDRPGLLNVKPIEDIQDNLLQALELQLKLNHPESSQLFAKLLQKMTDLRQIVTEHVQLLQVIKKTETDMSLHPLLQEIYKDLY
# Protocol: CV-1 cells (cultured cells derived from kidneys of male African green monkeys) were implanted on 24-well culture plates so as to be […]/well and cultured at 37° C. in 5% CO2 for 24 hours. As a medium, DMEM (Dulbecco's Modified Eagle Medium; manufactured by GIBCO) containing 10% FBS (fetal bovine serum) and a 10 mg/mL penicillin streptomycin solution was used. Using the Lipofectamine system (trade name; manufactured by Invitrogen Corporation), pM-hPPARγ and p4×UASg-tk-luc were transfected. The above-noted pM-hPPARγ was a chimeric protein-expression plasmid binding GAL4 gene (amino acid sequence 1-147) and human PPARγ ligand-binding site gene (amino acid sequence 204-505), whereas the above-noted p4×UASg-tk-luc was a reporter plasmid containing four copies of a responsive element (UAS) of GAL 4 upstream of a luciferase gene. About 24 hours after the transfection, samples of bergamottin at respective concentrations (0.1, 1.0, 10, 50 and 100 μM) were added to the above-described media, followed by 24 hour incubation. The above-noted samples were prepared by dissolving bergamottin in dimethyl sulfoxide (DMSO). Instead of the above-noted sample, DMSO was used for non-treated control media. After the incubation, measurement was made using a Dual-Luciferase Reporter Gene Assay system (trade name; manufactured by Promega Corporation).
# Similarly to the measurement group, as a control group, pM (a plasmid from which PPARγ ligand-binding site gene was removed) was used for measurement instead of pM-hPPARγ. For each sample, the ratio between average luminescence intensities of the measurement group and the control group (n=4) (measurement group/control group) was calculated, and an activity relative to the non-treatment control was determined as the PPARγ ligand activity of the sample.
# [2] = test system: 3T3-L1 cells; assay: Adiponectin secretion amount in 3T3-L1 medium supernatant by ELISA; assay type: cell-based, mouse; details: medium 7 days after differentiation induction, non-treatment control 4.27 ± 0.32, average ± standard error
# Protocol: Next, culture preadipocytes 3T3-L1 were thawed, inoculated in a 100 mm dish and cultured until 3T3-L1 cells reached about 80% confluence. A single dish of 3T3-L1 that had reached about 80% confluence was subcultured to a single 6-well plate and further cultured until the 3T3-L1 cells reached confluence in the 6-well plate, and then the medium was replaced with the differentiation induction medium, followed by differentiation induction. 48 hours later, the medium was replaced with the differentiation promotion medium, and thereafter, the medium was replaced with the differentiation promotion medium every two days. 7 days after the initiation of the differentiation induction, mRNA was extracted using Sepasol-RNA I Super (trade name; manufactured by Nacalai Tesque, Inc.), and the mRNA expression amounts of 36B4, aP2 and adiponectin, which were indicators of an early period of adipocyte differentiation, were measured using Light Cycler (TM). Also, the medium 7 days after the differentiation induction was taken in an amount of 1 mL from each well, and the amount of adiponectin in the medium supernatant was measured using a mouse/rat adiponectin ELISA kit (manufactured by Otsuka Pharmaceutical Co., Ltd.). […]
# Only the strips of the antibody plates necessary for the analysis were taken out. […] Incidentally, the standard solutions always were measured for each measurement and each plate. […]
compound,measurement,setting,value
"CC(C)=CCC/C(C)=C/COc1c2ccoc2cc2oc(=O)ccc12 [Bergamottin, bergamottin]",PPARγ ligand activity,[1]; 0.1 μM,90 ± 5.7
same,PPARγ ligand activity,[1]; 1.0 μM,132 ± 12.0
same,PPARγ ligand activity,[1]; 10 μM,388 ± 41.4
same,PPARγ ligand activity,[1]; 50 μM,961 ± 72.1
same,PPARγ ligand activity,[1]; 100 μM,1032 ± 248.3
same,PPARγ activity level compared with catechin,[1]; no catechin data shown,higher than that of catechin
same,Adiponectin secretion amount,[2]; 1 μM,4.37 ± 0.12
same,Adiponectin secretion amount,[2]; 5 μM,8.14 ± 0.36
